Patent publication US20220098251A1, “PEPTIDE TAGS FOR LIGAND INDUCED DEGRADATION OF FUSION PROTEINS” (DANA-FARBER CANCER INSTITUTE, INC., priority 2018, published 2022)

Legend:
DDB1ΔB-CRBN [1] = experiment: TR-FRET of SALL4 degron binding to CRBN; set-up: species or system human; conditions: for IMiD induced CRBN binding: purified proteins, SALL4 point mutants; for IMiD-dependent dimerization / binding affinity to CRBN: SALL4 degron tags, biochemical assays
Description: Compounds in binding assays were dispensed into a 384-well microplate (Corning, 4514) using the D300e Digital Dispenser (HP) normalized to 1% DMSO and containing 100 nM biotinylated Strep-Avi-SALL4 (WT or mutant, see, FIG. 3A-FIG. 3K), 1 μM His6-DDB1ΔB-His6-CRBNBODIPY-Spycatcher and 4 nM terbium-coupled streptavidin (Invitrogen) in a buffer containing 50 mM Tris pH 7.5, 100 mM NaCl, 1 mM TCEP, 0.1% Pluronic F-68 solution (Sigma). Before TR-FRET measurements were conducted, the reactions were incubated for 15 minutes at room temperature (RT). After excitation of terbium fluorescence at 337 nm, emission at 490 nm (terbium) and 520 nm (boron-dipyrromethene (BODIPY)) were recorded with a 70 μs delay over 600 μs to reduce background fluorescence and the reaction was followed over 30×200 second cycles of each data point using a PHERAstar® FS microplate reader (BMG Labtech). The TR-FRET signal of each data point was extracted by calculating the 520/490 nm ratios. Data from three independent measurements (n=3), each calculated as an average of 5 technical replicates per well per experiment, was plotted and the half maximal effective concentrations EC50 values calculated using variable slope equation in GraphPad Prism 7. […] The resulting data were fitted as described previously. (Petzold et al., Nature 532:127-130 (2016)).

[2] = test system: Kelly cells transiently transfected with Flag-hsSALL4; experiment: Western blot of Flag-hsSALL4 levels in Kelly cells treated with thalidomide; format: cell-based; conditions: 24 hours
Description: Kelly cells were transiently transfected with hsSALL4^G416A or Flag-hsSALL4^G416N were treated with increasing concentrations of thalidomide or DMSO as a control. Following 24 hours of incubation, SALL4 (α-Flag) and GAPDH protein levels were assessed by western blot analysis (FIG. 4A). (See, Example 7 for western blot method.)
Kelly cells transiently transfected with Flag-hsSALL4WT, Flag-hsSALL4G600A, or hsSALL4G600N were treated with increasing concentrations of thalidomide or DMSO as a control. Following 24 h of incubation, SALL4 (α-Flag) and GAPDH protein levels were assessed by western blot analysis (one representative experiment is shown out of three replicates).
Cells were treated with compounds as indicated and incubated for 24 hours, or as indicated. Samples were run on 4-20% or Any kD™ SDS-PAGE Gels (Bio-rad), and transferred to polyvinylidene fluoride (PVDF) membranes using the iBlot® 2.0 dry blotting system (Thermo Fisher Scientific). Membranes were blocked with LI-COR® blocking solution (LI-COR®), and incubated with primary antibodies overnight, followed by three washes in LI-COR® blocking solution and incubation with secondary antibodies for one hour in the dark. After three final washes, the membranes were imaged on a LI-COR® fluorescent imaging station.

eGFP-IKZF1Δ fusion = target: T1, eGFP-IKZF1Δ fusion (Homo sapiens, UniProt Q13422); experiment: Cellular degradation assay of eGFP-IKZF1Δ reporter by flow cytometry; format: cell-based; conditions: Flip-In 293 cells, 5 h, eGFP/mCherry
T1 construct: eGFP (followed by P2A); expressed in transfected cells
Description: Following 2-3 passage cycle FACS (FACSAria™ II, BD) was used to enrich for cells expressing eGFP and mCherry.
Signal from at least 3,000 events per well was acquired, and the eGFP and mCherry florescence monitored. Data were analyzed using FlowJo™ (FlowJo™, LCC). […] The eGFP protein abundance relative to mCherry was then quantified as a ten-fold amplified ratio for each individual cell using the formula: 10×eGFP/mCherry. The median of the ratio was then calculated per set, normalized to the median of the DMSO ratio.
Quantitative assessment of cellular degradation of a IKZF1-EGFP reporter using flow cytometry analysis. Cells stably expressing IKZF1Δ-EGFP and mCherry were treated with increasing concentrations of the indicated molecules and the EGFP and mCherry signals followed using flow cytometry analysis. Data in this figure are presented as means±s.d. from four cell culture replicates (n=4).

[3] = test system: Jurkat cells expressing individual ZFs in the Cilantro 2 protein degradation reporter; experiment: Drug dependent degradation of ZFs in Cilantro 2 protein degradation reporter lentivector; format: cell-based; conditions: Cilantro 2, Jurkat cells
Excerpt: Next-generation sequencing of sorted cell populations encoding the ZF library was based on GFP expression. […] The experimental procedure was as described in Example 16.

DDB1ΔB-CRBN [4] = target: T2, DDB1ΔB-CRBN (Homo sapiens, UniProt Q96SW2); experiment: IKZF1Δ TR-FRET dimerization assay; format: binding; conditions: titration of IMiDs
T2 construct: 3C protease site (N); made in house; host or cells: Trichoplusia ni High Five insect cells (baculovirus)
Description: Compounds in dimerization assays were dispensed in a 384-well microplate (Corning, 4514) using D300e Digital Dispenser (HP) normalized to 2% DMSO into 80 nM biotinylated StrepII-avi-IKZF1Δ (See, Figure legends), 100 nM His6-DDB1ΔB-His6-CRBNBODIPY-Spycatcher and 2 nM terbium-coupled streptavidin (Invitrogen™) in a buffer containing 50 mM Tris pH 7.5, 200 mM NaCl, 0.1% Pluronic F-68 solution (Sigma) and 2% DMSO (4% DMSO final). Before TR-FRET measurements were conducted, the reactions were incubated for 15 min at RT. After excitation of terbium fluorescence at 337 nm, emission at 490 nm (terbium) and 520 nm (BODIPY) were recorded with a […] to reduce background fluorescence and the reaction was followed over 30 200 second cycles of each data point using a PHERAstar® FS microplate reader (BMG Labtech). The TR-FRET signal of each data point was extracted by calculating the 520/490 nm ratio. The 520/490 nm ratios in IKZF1Δ TR-FRET assays were plotted to calculate or IC50 (for compound titrations) using GraphPad Prism 7 variable slope equation. The standard deviation in IKZF1Δ TR-FRET compound titrations was calculated from three independent replicates (n=3), or as an average of 5 technical replicates of single experiment for unlabeled protein titrations.
Titration of the indicated molecules to DDB1ΔB-CRBNSPYCATCHER-BODIPY, Terbium-streptavidin and IKZF1Δbiotin. […]

T1 sequence (Q96SW2 whole entry partner, one chain of several, the tested form may be a part): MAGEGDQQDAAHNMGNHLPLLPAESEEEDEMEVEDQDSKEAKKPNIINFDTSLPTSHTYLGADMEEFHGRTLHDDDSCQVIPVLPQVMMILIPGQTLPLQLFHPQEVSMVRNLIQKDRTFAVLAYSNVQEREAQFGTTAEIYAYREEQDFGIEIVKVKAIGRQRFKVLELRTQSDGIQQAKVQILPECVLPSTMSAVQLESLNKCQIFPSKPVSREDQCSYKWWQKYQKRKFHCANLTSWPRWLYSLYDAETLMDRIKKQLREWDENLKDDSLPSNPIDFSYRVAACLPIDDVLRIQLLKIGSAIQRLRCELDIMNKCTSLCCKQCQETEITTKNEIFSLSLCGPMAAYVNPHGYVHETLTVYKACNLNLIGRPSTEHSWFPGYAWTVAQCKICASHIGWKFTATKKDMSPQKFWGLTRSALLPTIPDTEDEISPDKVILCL
T1 sequence (Q16531 whole entry partner, one chain of several, the tested form may be a part): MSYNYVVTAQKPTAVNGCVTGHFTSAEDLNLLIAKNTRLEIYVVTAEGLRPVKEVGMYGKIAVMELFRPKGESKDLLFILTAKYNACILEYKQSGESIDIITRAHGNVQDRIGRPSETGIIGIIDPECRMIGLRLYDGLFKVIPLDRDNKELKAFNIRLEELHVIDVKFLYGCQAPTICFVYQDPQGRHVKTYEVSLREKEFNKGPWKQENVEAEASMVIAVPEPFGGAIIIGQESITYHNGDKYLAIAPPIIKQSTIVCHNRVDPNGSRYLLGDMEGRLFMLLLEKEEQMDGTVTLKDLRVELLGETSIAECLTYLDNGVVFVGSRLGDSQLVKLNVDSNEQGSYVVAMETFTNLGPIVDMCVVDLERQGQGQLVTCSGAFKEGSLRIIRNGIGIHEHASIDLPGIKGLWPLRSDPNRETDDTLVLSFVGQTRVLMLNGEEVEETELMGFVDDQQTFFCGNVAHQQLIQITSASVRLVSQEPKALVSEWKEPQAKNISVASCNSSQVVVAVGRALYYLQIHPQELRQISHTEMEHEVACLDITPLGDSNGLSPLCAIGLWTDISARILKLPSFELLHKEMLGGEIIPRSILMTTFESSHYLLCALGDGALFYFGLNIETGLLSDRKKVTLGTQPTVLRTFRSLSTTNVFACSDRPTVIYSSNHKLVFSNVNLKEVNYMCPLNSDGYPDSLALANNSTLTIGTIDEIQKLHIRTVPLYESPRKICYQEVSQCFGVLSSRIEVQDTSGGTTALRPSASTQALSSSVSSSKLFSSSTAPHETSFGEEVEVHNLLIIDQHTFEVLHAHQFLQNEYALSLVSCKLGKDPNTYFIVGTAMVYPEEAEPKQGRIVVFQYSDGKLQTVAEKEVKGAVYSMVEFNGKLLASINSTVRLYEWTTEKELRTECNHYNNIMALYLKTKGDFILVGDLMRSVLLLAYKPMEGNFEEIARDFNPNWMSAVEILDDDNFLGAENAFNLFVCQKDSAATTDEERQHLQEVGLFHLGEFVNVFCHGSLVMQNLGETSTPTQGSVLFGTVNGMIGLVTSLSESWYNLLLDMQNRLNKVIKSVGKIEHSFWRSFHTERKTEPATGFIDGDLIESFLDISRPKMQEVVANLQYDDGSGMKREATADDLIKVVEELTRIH
T2 sequence (Q96SW2 whole entry, stated change not applied): as the sequence (Q96SW2 whole entry partner, one chain of several, the tested form may be a part) above

With “G416A: SALL4 with G416A point mutation in ZnF2” the “IMiD induced CRBN binding” value (DDB1ΔB-CRBN [1]) was “abrogated IMiD induced CRBN binding” and the “protein degradation in cells” value [2] was “disable degradation in cells”.

`Nc1cccc2c1CN(C1CCC(=O)NC1=O)C2=O` (stereo not drawn) [lenalidomide] was tested, and the “degradation of eGFP-IKZF1Δ fusion” value (eGFP-IKZF1Δ fusion) was “potent degradation”.

In the case of “CC220-2: zinc finger degron MQCEICGFTCRRAEELNTHLNKH (SEQ ID NO: 186)”, the “degradation by iberdomide relative to control sequences” value [3] is reported as “more efficiently degraded by iberdomide (aka CC-220) than the indicated control sequences”.

For `O=C1CCC(N2C(=O)c3ccccc3C2=O)C(=O)N1` (stereo not drawn) [thalidomide], the “degradation of eGFP-IKZF1Δ fusion” value (eGFP-IKZF1Δ fusion) was “potent degradation”.

With “CC220-3: zinc finger degron FYCKQCGANFSRWEELYNHLKAH (SEQ ID NO: 187)” the “degradation by iberdomide relative to control sequences” value [3] was “more efficiently degraded by iberdomide (aka CC-220) than the indicated control sequences”.

For “Q595H: SALL4 ZnF4 with mutation of glutamine 595 residue”, the “IMiD-dependent dimerization / binding affinity to CRBN” value (DDB1ΔB-CRBN [1]) was “reduced binding affinity” and the “protein degradation in cells” value [2] was “no effect at the ability of the protein product to be degraded”.

“CC220-1: zinc finger degron FYCTQCGAAFDRWEELYNHLLNH (SEQ ID NO: 185)” was tested, and the “degradation by iberdomide relative to control sequences” value [3] was “more efficiently degraded by iberdomide (aka CC-220) than the indicated control sequences”.

`Nc1cccc2c1C(=O)N(C1CCC(=O)NC1=O)C2=O` (stereo not drawn) [pomalidomide] was tested, and the “degradation of eGFP-IKZF1Δ fusion” value (eGFP-IKZF1Δ fusion) was “potent degradation”.

B1: IKZF1 (SEQ ID NO: 18): non-naturally occurring degron tag of SEQ ID NO: 18 (protein)
chain: RMLDASGEKMNGSHRDQGSSALSGVGGIRLPNGKLKCDICGIICIGPNVLMVHKRSHTGERPFQCNQCGASFTQKGNLLRHIKLHSGEKPFKCHLCNYACRRRDALTGHLRTHSVIKEETNHSEMAEDLCK
B1 was tested, and the “dimerization between CRBN-DDB1ΔB and IKZF1Δ” value (DDB1ΔB-CRBN [4]) was “Potent dimerization”.

B2: G416N: SALL4 with G416N point mutation in ZnF2 (protein)
chain: ALYKHKCKYCSKVFGTDSSLQIHLRSHTGERPFVCSVCNHRFTTKGNLKVHFHRHPQVKAN
modifications: left off: small tags and cut ends
notes: SALL4 with G416N point mutation in ZnF2
In the case of B2, the “IMiD induced CRBN binding” value (DDB1ΔB-CRBN [1]) is reported as “abrogated IMiD induced CRBN binding” and the “protein degradation in cells” value [2] is reported as “disable degradation in cells”.

B3: S388N: SALL4 ZnF1-2 with S388N mutation in ZnF1 (SEQ ID NO: 84) (protein)
chain: ALYKHKCKYCNKVFGTDSSLQIHLRSHTGERPFVCSVCGHRFTTKGNLKVHFHRHPQVKAN
For B3, the “IMiD induced CRBN binding” value (DDB1ΔB-CRBN [1]) was “maintained IMiD induced CRBN binding”.

B4: SALL4 ZnF1-2: degron tag SEQ ID NO: 27 (protein)
chain: ALYKHKCKYCSKVFGTDSSLQIHLRSHTGERPFVCSVCGHRFTTKGNLKVHFHRHPQVKAN
For B4, the “IMiD-dependent dimerization / binding affinity to CRBN” value (DDB1ΔB-CRBN [1]) was “sufficient to induce efficient dimerization”.
